# Experimental data as given in PMC7905067, “Design and Immunological Evaluation of a Hybrid Peptide as a Potent TLR2 Agonist by Structure-Based Virtual Screening” (Frontiers in Cell and Developmental Biology, 2021).
# Entries after “also recorded” stand apart in the source; their conditions may differ.
# Key:
# TLR2, RAW264.7 cells [1] = experiment: Cell surface TLR2 cluster formation by confocal laser-scanning microscopy; type: cell-based, mouse; conditions: LTPa 10 μg/mL, 1 h, 37°C; clusters = fluorescence > 40 arbitrary units; three independent experiments
# Experimental: RAW264.7 cells were treated with or without 10 μg/mL LTPa for 1 h at 37°C. The cells were then incubated (30 min, on ice) with anti-mouse monoclonal antibody TLR2 or isotype control (IgG) (eBioscience) before washing with PBS. Then, the cells were stained with a FITC–conjugated anti-mouse IgG antibody for 30 min on ice (Jackson Laboratories). After washing with PBS and fixing with paraformaldehyde, the cell nuclei were stained with DAPI (1:500 dilution in PBS) (Sigma-Aldrich). The cells were then imaged with the Leica TCS SP5 confocal system (Leica Microsystems Ltd.). LAS AF software was used to process the images and quantify the fluorescence. In addition, to generate a fluorescence histogram profile, a line was drawn along the cell surface. Fluorescence intensities higher than 40 arbitrary units (isotype control staining) were considered clusters of TLR2 molecules.
# TLR2, RAW264.7 cells [2] = experiment: TLR2 blocking experiment (anti-mouse TLR2 C9A12, then LTPa); type: cell-based; conditions: LTPa 10 μg/mL, 24 h; with or without TLR2 mAb (C9A12) 1 h before; ELISA
# Experimental: For TLR2 blocking experiments, RAW264.7 cells were cultured in 24-well plates overnight at 37°C. The mouse IgG2a isotype control antibody or anti-mouse TLR2 (C9A12; InvivoGen, San Diego, CA, United States) was added to the cell cultures 1 h before being treated with LTPa for 24 h at 37°C. Then, the levels of TNF-α, IL-6, and IL-1β in the culture supernatant were analyzed.
# [3] = tested on: serum TNF-α, IL-6, and IL-1β; experiment: Serum cytokines by ELISA in CTX-treated mice; type: in vivo, BALB/c mice; conditions: CTX 80 mg/kg i.p. 3 days, peptide 10 mg/kg i.p. days 4-10, three biological replicates
# Experimental: (§1) After a 7-day adaptation period, the mice were randomly divided into five groups (n = 12 in each group): (1) control group: physiological saline was injected intraperitoneally once daily; (2) cyclophosphamide (CTX) group: CTX (80 mg/kg mouse weight; Sigma-Aldrich, St. Louis, MO, United States) was injected intraperitoneally once daily for the first 3 days. […] From days 4 to 10, peptide (10 mg/kg mouse weight) was injected intraperitoneally into mice once daily. Twenty-four hours after the last drug administration, all the mice were weighed and then euthanized, and their tissues and blood were collected for further study. The body weight index was calculated according to the formula: […]
# (§2) Serum was collected from blood and then assayed by ELISA kits according to the protocol supplied by the manufacturer (eBioscience, San Diego, United States) to determine the secretion of IgG, IgA, IgM, TNF-α, IL-6, and IL-1β.
# serum IgA, IgG, and IgM = experiment: Serum immunoglobulins by ELISA in CTX-treated mice; type: in vivo, BALB/c mice; conditions: CTX 80 mg/kg i.p. 3 days, peptide 10 mg/kg i.p. days 4-10, three biological replicates
# Experimental: as §1, §2
# [4] = tested on: T lymphocyte subpopulations (CD4 +, CD8 +), mouse peripheral blood; experiment: Peripheral blood T lymphocyte subpopulations by flow cytometry; type: in vivo, BALB/c mice; conditions: CTX 80 mg/kg i.p. 3 days; peptide 10 mg/kg i.p. days 4-10; three biological replicates
# Experimental: as §1
# Erythrocytes were aseptically obtained from the different groups of mouse peripheral blood and lysed with RBC lysis buffer. The remaining cells were washed with PBS and resuspended in PBS. The cells were combined with peridinin-chlorophyll-protein complex (PerCP)-conjugated anti-mouse CD3 +, allophycocyanin (APC)-conjugated anti-mouse CD4 +, and fluorescein isothiocyanate (FITC)-conjugated anti-mouse CD8 + (BD Pharmingen, United States) for 30 min at 4°C. The T lymphocyte subpopulations were analyzed by flow cytometry.
# TLR2 = experiment: Surface plasmon resonance, immobilized TLR2; type: binding; conditions: Biacore X100, CM5 chip, PBS containing 0.05% Tween 20; 0, 1.25, 2.5, 5, and 10 mM
# Experimental: Surface plasmon resonance (SPR) experiments were carried out using a Biacore X100 instrument (GE Healthcare, Pittsburgh, PA, United States) by standard amine coupling. TLR2 (R&D Systems, Minneapolis, MN, United States) was amine-coupled to a Biacore CM5 sensor chip (Bio-Rad). The peptide was diluted to varying concentrations (0, 1.25, 2.5, 5, and 10 mM) in running buffer (PBS containing 0.05% Tween 20) and run sequentially over immobilized TLR2. Binding curves were processed for the initial injection alignment and baseline, and a reference-subtracted sensorgram was globally fitted to the curves to describe a homogeneous 1:1 model. Data analysis was conducted using ProteOn manager software (version 2.0). Data from the protein surfaces were grouped together to fit the association kinetic rate constant (Ka) and the dissociation rate constant (Kd). The equilibrium dissociation constant (KD) for the peptide-TLR2 interaction was calculated as follows: […]
# RAW264.7 cells = experiment: In vitro immunomodulatory activity: cytokine secretion by RAW264.7 cells (ELISA); type: cell-based, murine; conditions: 10 μg/mL, 12 h
# Experimental: RAW264.7 cells were seeded at a density of 1.0 × 10^6 cell/mL and treated with (10 μg/mL) or without peptides in each well of a 6-well plate for 12 h at 37°C in a humidified incubator with 5% CO2. After treatment, TNF-α, IL-6 and IL-1β secretion in the cell supernatants was assessed using ELISA kits according to the manufacturer’s instructions.
# [5] = tested on: CTX-immunosuppressed murine model; experiment: Body weight and immune organ indices in CTX-immunosuppressed mice; type: in vivo, BALB/c mice; conditions: CTX 80 mg/kg i.p. 3 days, peptide 10 mg/kg i.p. days 4-10, n = 12
# Experimental: BALB/c mice (female, 6–8 weeks; Charles River, Beijing, China) used in this study were maintained in a specific-pathogen-free facility (55 ± 10% humidity and 22 ± 1°C) during the experiments. These experiments were conducted with approval from the Institutional Animal Care and Use Committee of China Agricultural University (certificate of the Beijing Laboratory Animal employee, ID: 18086).
# After a 7-day adaptation period, the mice were randomly divided into five groups (n = 12 in each group): (1) control group: physiological saline was injected intraperitoneally once daily; (2) cyclophosphamide (CTX) group: CTX (80 mg/kg mouse weight; Sigma-Aldrich, St. Louis, MO, United States) was injected intraperitoneally once daily for the first 3 days. […] From days 4 to 10, peptide (10 mg/kg mouse weight) was injected intraperitoneally into mice once daily. Twenty-four hours after the last drug administration, all the mice were weighed and then euthanized, and their tissues and blood were collected for further study. The body weight index was calculated according to the formula:
# Index(%)=finalbodyweight-initalbodyweight/initialbodyweight×100
# The thymus and spleen indices were measured by the following formula:
# Index(mg/g)=weightofthymusorspleen/bodyweight
# [6] = tested on: MHC class II, mouse PBMCs; experiment: DC maturation: MHC-II expression by flow cytometry; type: in vivo, BALB/c mice; conditions: CTX 80 mg/kg i.p. 3 days; peptide 10 mg/kg i.p. days 4-10; three biological replicates
# Experimental: as §1
# Mouse peripheral blood mononuclear cells (PBMCs) were obtained from the different groups of mice through Ficoll density gradient centrifugation. The cells were resuspended in PBS with 5% FBS and incubated with 10% (v/v) normal goat serum for 15 min at 4°C. The cells were combined with FITC-conjugated antibodies specific for MHC class II (MHC-II; BD Pharmingen, United States). The surface expression of MHC-II was determined by flow cytometry.
# [7] = 37°C, ELISA, three independent experiments
sequence,measurement,setting,value
"IGKEFKRIVQRIKDFLRNLVPRTERKDVT [LTPa, hybrid peptide combining LL-37a and TP5]",TLR2 clusters per micrometer on the cell surface,"TLR2, RAW264.7 cells [1]",significantly increased the number of major TLR2 clusters per micrometer on the cell surface
same,"TNF-α, IL-6, and IL-1β production","TLR2, RAW264.7 cells [2]","significantly caused increase levels of TNF-α, IL-6, and IL-1β"
same,serum IL-1β level,[3],higher than those in the TP5- or LL-37-treated groups; also recorded: efficiently reversed the declines
same,serum IL-6 level,[3],higher than those in the TP5- or LL-37-treated groups; also recorded: efficiently reversed the declines
same,serum TNF-α level,[3],higher than those in the TP5- or LL-37-treated groups; also recorded: efficiently reversed the declines
same,serum IgA level,"serum IgA, IgG, and IgM","significantly higher total serum IgA, IgG, and IgM levels than mice in the TP5- or LL-37-treated groups"
same,serum IgG level,"serum IgA, IgG, and IgM","significantly higher total serum IgA, IgG, and IgM levels than mice in the TP5- or LL-37-treated groups"
same,serum IgM level,"serum IgA, IgG, and IgM","significantly higher total serum IgA, IgG, and IgM levels than mice in the TP5- or LL-37-treated groups"
same,proportions of CD4 + and CD8 + T lymphocytes,[4],significantly higher than that in the LL-37-treated group and similar to that in the TP5-treated group
same,binding to TLR2 (SPR),TLR2,could effectively bind to the TLR2
same,IL-1β secretion,RAW264.7 cells; [7],remarkable increases
same,IL-6 secretion,RAW264.7 cells; [7],remarkable increases
same,TNF-α secretion,RAW264.7 cells; [7],remarkable increases
same,"secretion of TNF-α, IL-6, and IL-1β (comparison between peptides)",RAW264.7 cells; vs the other peptides tested,"significantly increased the secretion of TNF-α, IL-6, and IL-1β in comparison with the other peptides tested"
same,spleen index,[5],significantly higher than those in the LL-37-treated and TP5-treated groups
same,thymus index,[5],significantly higher than those in the LL-37-treated and TP5-treated groups
same,bodyweight,[5]; CTX group vs control,improved bodyweight rapidly; also recorded: significantly higher than that in the parental peptide (LL-37 and TP5)-treated groups
same,expression of MHC-II,[6],increased by LTPa treatment; also recorded: significantly higher than that in the LL-37-treated and TP5-treated groups
